A short description of data set [1]: toxicity (LD50), p.o. in the mouse. As to conditions: in vivo, po. As for the experimental part:
The MAO inhibiting activity of the compounds in accordance with the invention can be determined using standard methods. Thus, the substances to be tested were administered p.o. to rats. Two hours thereafter the animals were killed and the MAO inhibiting activity was measured in homogenates of the brain according to the method described in Biochem. Pharmacol. 12 (1963) 1439-1441, but using phenethylamine (2.10^-5 mol.1^-1) in place of tyramine as the substrate. The thus-determined activity of some compounds in accordance with the invention as well as their toxicity are evident from the following ED50 values (μmol/kg, p.o. in the rat) and LD50 values (mg/kg, p.o. in the mouse), respectively: […]

The target of data set [2] is T1, monoamine oxidase (MAO) (Rattus norvegicus, UniProt P19643).
T1 construct: from tissue; host or cells: rat brain homogenate (ex vivo, two hours after p.o. dosing)
T1 sequence (P19643 1-520): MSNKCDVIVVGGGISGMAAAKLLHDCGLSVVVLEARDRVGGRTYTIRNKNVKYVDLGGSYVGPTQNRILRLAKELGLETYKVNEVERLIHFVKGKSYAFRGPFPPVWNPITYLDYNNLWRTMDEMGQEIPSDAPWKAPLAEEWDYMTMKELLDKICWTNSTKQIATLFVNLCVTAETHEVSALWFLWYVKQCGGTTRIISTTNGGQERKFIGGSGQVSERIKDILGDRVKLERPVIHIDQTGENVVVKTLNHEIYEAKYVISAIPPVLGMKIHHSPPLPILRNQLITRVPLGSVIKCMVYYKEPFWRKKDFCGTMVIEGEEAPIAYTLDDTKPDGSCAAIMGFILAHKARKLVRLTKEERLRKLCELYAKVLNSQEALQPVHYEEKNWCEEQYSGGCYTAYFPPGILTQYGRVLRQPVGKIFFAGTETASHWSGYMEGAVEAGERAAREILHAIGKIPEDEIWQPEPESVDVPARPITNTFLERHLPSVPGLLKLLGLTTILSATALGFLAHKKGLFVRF
Briefly: MAO inhibiting activity measured in homogenates of the brain two hours after p.o. administration to rats (phenethylamine as substrate). In kind it is in vivo. The following applies: po, read-out: ED50 (MAO inhibiting activity). As for the experimental part: The MAO inhibiting activity of the compounds in accordance with the invention can be determined using standard methods. Thus, the substances to be tested were administered p.o. to rats.

Structures can show the parent of a compound that is named as a salt. Where two headings read alike, the source gives them in different places.

The LD50 is the dose expected to kill half of the subjects tested. Read a high LD50 as lower toxicity. Usually ED50 stands for the dose at which the effect has come halfway, by size or by number of responders. Regarding `Cl.NCCNC(=O)c1ncsc1Br` [N-(2-aminoethyl)-5-bromothiazole-4-carboxamide hydrochloride], the LD50 in data set [1] lay in the range of 1250 to 2500 mg/kg. In data set [2] (rat, 2 h), the ED50 worked out at 10 µmol/kg.

On to `Cl.NCCNC(=O)c1cc(Br)ccn1` [N-(2-aminoethyl)-4-bromopyridine-2-carboxamide hydrochloride], for which the LD50 in data set [1] was 1000 to 2000 mg/kg. Besides, the ED50 in data set [2] (rat, 2 h) came to 4 µmol/kg.

On to `Cl.Cl.NCCNC(=O)c1ncccc1N` [N-(2-aminoethyl)-3-aminopyridine-2-carboxamide dihydrochloride], for which, in data set [1], the LD50 lay in the range of 2500 to 5000 mg/kg. Further, in data set [2] (rat, 2 h), the ED50 is 5 µmol/kg.

`Cl.NCCNC(=O)c1cc(Cl)ccn1` [N-(2-aminoethyl)-4-chloropyridine-2-carboxamide hydrochloride] had an LD50 in data set [1] of 1250 to 2500 mg/kg. In data set [2] (rat, 2 h), the ED50 turned out to be 5 µmol/kg.

Take `Cl.NCCNC(=O)c1cccc(Br)n1` [N-(2-aminoethyl)-6-bromopyridine-2-carboxamide hydrochloride]: in data set [1], the LD50 fell in the range of 1000 to 2000 mg/kg. Further, the median effective dose (ED50) in data set [2] (rat, 2 h) is 8 µmol/kg.

`Cc1cc(C(=O)NCCN)no1.Cl` [N-(2-aminoethyl)-5-methylisoxazole-3-carboxamide hydrochloride] had an LD50 in data set [1] of over 4000 mg/kg. For the same compound, the ED50 in data set [2] (rat, 2 h) is 20 µmol/kg.

As to `Cl.NCCNC(=O)c1ccc(Cl)cn1` [N-(2-aminoethyl)-5-chloropyridine-2-carboxamide hydrochloride], the LD50 in data set [1] was 1000 to 2000 mg/kg.

In data set [1], `Cl.NCCNC(=O)c1csc(Cl)n1` [N-(2-aminoethyl)-2-chlorothiazole-4-carboxamide hydrochloride] had an LD50 of 2500 to 5000 mg/kg. Moreover, the ED50 in data set [2] (rat, 2 h) was 6 µmol/kg.

`Cl.Cl.NCCNC(=O)c1ccccn1` [N-(2-aminoethyl)-pyridine-2-carboxamide dihydrochloride] displayed an LD50 in data set [1] of over 4000 mg/kg. Also, in data set [2] (rat, 2 h), the ED50 is 1.7 µmol/kg.

In data set [1], `NCCNC(=O)c1cccc(Cl)n1` [N-(2-aminoethy)-6-chloropyridine-2-carboxamide hydrochloride] yielded an LD50 of 625 to 1250 mg/kg. Also, the ED50 in data set [2] (p.o. in the rat, brain homogenates 2 hours after administration, substrate phenethylamine 2.10^-5 mol.1^-1) came to 10 µmol/kg.

(Values after US4764522A, “Ethylenediamine monoamides” (Hoffmann-La Roche Inc., priority 1984, dated 1988).)
